In brackets after ≈: the same amount, converted by molar mass. Activity calls are given as the source filed them. No cut-off for these calls is given here.
How the values were obtained:
[1] = (§1) Antiangiogenic activity against human CD34-positive EPC assessed as inhibition of tube formation after 24 hrs by matrigel based inverted phase contrast microscopic analysis; assay type: functional, cell-based
EPC = experiment: as §1; assay type: functional, cell-based
Neutrophil [2] = experiment: Anti-inflammatory activity in fMLP/CB-stimulated human neutrophils assessed as reduction in elastase release at 30 ug/mL using MeO-Suc-Ala-Ala-Pro-Val-p-nitroanilide as substrate preincubated for 5 mins followed by cytochalasin B addition and subsequent fMLP-stimulation for 10 mins by spectrophotometric assay; assay type: functional, cell-based
A549 = experiment: Antiproliferative activity against human A549 cells at 20 ug/mL after 72 hrs by MTT assay; assay type: functional, cell-based
[3] = Cytotoxicity against CD34-positive human EPC at 25 to 50 ug/mL after 24 hrs by LDH release assay; assay type: cell-based
Neutrophil [4] = experiment: Anti-inflammatory activity in fMLP/CB-stimulated human neutrophils assessed as reduction in superoxide generation at 30 ug/mL preincubated for 5 mins followed by cytochalasin B addition for 3 mins and subsequent fMLP-stimulation for 10 mins by ferricytochrome c reduction based spectrophotometric assay; assay type: functional, cell-based
MDA-MB-231 = experiment: Antiproliferative activity against human MDA-MB-231 cells at 20 ug/mL after 72 hrs by MTT assay; assay type: functional, cell-based
HepG2 = experiment: Antiproliferative activity against human HepG2 cells at 20 ug/mL after 72 hrs by MTT assay; assay type: functional, cell-based
Staphylococcus aureus = experiment: Antimicrobial activity against Methicillin-resistant Staphylococcus aureus ATCC 33592 at 2 mg/ml after 24 hrs by agar well-diffusion method; assay type: functional

Structure (SMILES): CC[C@@H](C)[C@H]1C=C[C@H]2[C@H](O)[C@@H](CO)C[C@@H](C)[C@@H]2[C@@]1(C)C(=O)CCO
- IC50 [1]: 34.1 µg/mL (≈ 101 µM)
- inhibition (EPC): Dose-dependent effect
- Activity (Neutrophil [2]): inactive
- Activity (A549): inactive
- Activity [3]: Non-Toxic
- Activity (Neutrophil [4]): inactive
- Activity (MDA-MB-231): inactive
- Activity (HepG2): inactive
- Activity (Staphylococcus aureus): inactive
